Assay results published in patent publication EP4781984A1 (Beyang Therapeutics Co., Ltd., priority 2023, dated 2025).
Entries after “also recorded” stand apart in the source; their conditions may differ.

Legend:
[1] = Thermodynamic solubility test; type: physicochemical; settings: buffer solution, aqueous buffer, thermodynamic from solid; positive compound
Procedure, shortened: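 Samples sonicated 10 min, shaken 8 h at room temperature, re-sonicated and centrifuged at 13000 rpm for 15 min. Supernatant recentrifuged and analysed by LC-MS, with concentrations quantified against a 3–5 point calibration curve.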

[2] = Plasma and ocular tissue distribution after single ocular administration in Dutch Belted rabbits (Example 6); type: in vivo; settings: single eye drop 1 mg/mL (0.05 mg/eye, 50 µL/eye), 0.5, 4 or 8 hours
Excerpt: Detection of Plasma and Ocular Tissue Distribution of Compounds after Single Ocular Administration in Dutch Belted Rabbits
Age-related macular degeneration and diabetic retinopathy are associated with neovascularization in the posterior segment of the eye. A major problem with topical eye drops for treating posterior segment disorders is the inefficient delivery of the agent to the posterior segment sites due to the corneal and conjunctival barriers. Therefore, it is important to measure the distribution of compounds from ocular formulations in several major ocular tissues. […] This experiment used Dutch Belted rabbits. […]
Male Dutch Belted rabbits used in this experiment were purchased from Pizhou Dongfang Breeding Co., Ltd., with animal weights ranging from 1.5 to 2.5 kg. […] All prepared dosing formulations were freshly prepared on the day of administration, sampled, and the actual concentration of the dosing formulation was determined.
On the day of the experiment, animals were administered 1 mg/mL (0.05 mg/eye, 50 µL/eye). […] The concentrations of each analyte in rabbit ocular tissues and plasma obtained in this experiment were determined using an LC-MS/MS analytical method. […] BLOQ (Below the Limit of Quantification) is the lowest analyte concentration that can be quantified with acceptable precision and accuracy. […]

[3] = background statement on the known drug; cited from earlier work

CNC(=O)c1ccccc1Sc1ccc2c(/C=C/c3ccccn3)n[nH]c2c1 [Axitinib]
solubility thermodynamic at 8 h [1]: < 2 µg/mL
drug concentration in retina [2]: below the lower limit of quantification; also recorded: below BLOQ
solubility [3]: < 2 µg/mL
